According to patent US5532267A, “Amidinonaphthyl furancarboxylate derivatives and acid addition salts therof” (Torii & Co., Ltd., priority 1992, dated 1996):
Counter-ions that a name gives are not always drawn. Like-named read-outs stand apart in the source and are kept apart here.

Key:
trypsin = molecular target: T1, trypsin (Bos taurus, UniProt P00760); assay: anti-trypsin activity, hydrolysis of TAME (tosylarginine methyl ester); type: biochemical; conditions: hydrolysis of TAME; read-out: Try: molar concentration inhibiting 50% of enzyme activity (IC50)
T1 sequence (P00760 24-246): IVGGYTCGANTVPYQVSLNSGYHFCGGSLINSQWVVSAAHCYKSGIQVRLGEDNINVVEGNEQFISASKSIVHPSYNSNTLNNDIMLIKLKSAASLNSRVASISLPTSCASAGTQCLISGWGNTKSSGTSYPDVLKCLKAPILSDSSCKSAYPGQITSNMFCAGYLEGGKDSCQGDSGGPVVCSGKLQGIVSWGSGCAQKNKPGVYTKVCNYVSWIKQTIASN

plasmin = plasmin (Homo sapiens, UniProt P00747); assay: anti-plasmin activity, hydrolysis of TAME (tosylarginine methyl ester); type: biochemical; conditions: hydrolysis of TAME; read-out: Pla: molar concentration inhibiting 50% of enzyme activity (IC50)
Description: (§1) The values in Table 1 represent molar concentrations (IC50) of test compounds which inhibit 50% of the activity of each enzyme to hydrolyze TAME (tosylarginine methyl ester). The anti-trypsin, anti-plasmin, anti-kallikrein and anti-thrombin activities were determined according to the method of Muramatsu et al. (J. Biochem. (1965), volume 58, page 214).

C1r = molecular target: T2, C1r (Homo sapiens, UniProt P00736); assay: anti-complement (anti-C1 esterase) activity, C1r hydrolysis of AAME (acetyl-arginine methyl ester); type: biochemical
T2 sequence (P00736 18-705): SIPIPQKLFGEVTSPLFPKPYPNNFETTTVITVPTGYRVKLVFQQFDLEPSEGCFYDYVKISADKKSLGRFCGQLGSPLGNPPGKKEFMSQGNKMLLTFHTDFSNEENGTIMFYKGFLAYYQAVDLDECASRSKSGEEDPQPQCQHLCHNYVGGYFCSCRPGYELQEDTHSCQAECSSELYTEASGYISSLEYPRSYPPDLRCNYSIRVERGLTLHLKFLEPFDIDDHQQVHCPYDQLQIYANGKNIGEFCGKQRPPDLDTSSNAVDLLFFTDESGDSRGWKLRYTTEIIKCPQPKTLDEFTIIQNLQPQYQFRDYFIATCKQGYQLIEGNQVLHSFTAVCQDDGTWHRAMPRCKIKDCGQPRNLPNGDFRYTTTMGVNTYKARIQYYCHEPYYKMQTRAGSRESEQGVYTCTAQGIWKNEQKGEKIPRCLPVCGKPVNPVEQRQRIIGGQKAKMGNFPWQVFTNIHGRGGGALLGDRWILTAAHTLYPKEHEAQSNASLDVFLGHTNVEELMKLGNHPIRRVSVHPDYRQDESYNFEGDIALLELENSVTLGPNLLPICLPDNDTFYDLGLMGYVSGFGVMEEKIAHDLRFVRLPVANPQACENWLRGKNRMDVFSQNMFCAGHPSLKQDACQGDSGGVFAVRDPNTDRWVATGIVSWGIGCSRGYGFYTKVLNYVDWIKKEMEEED

C1s = molecular target: T3, C1s (Homo sapiens, UniProt P09871); assay: anti-complement (anti-C1 esterase) activity, C1s hydrolysis of ATEE (acetyltyrosine ethyl ester); type: biochemical; conditions: hydrolysis of ATEE; read-out: Cls: molar concentration inhibiting 50% of C1s activity (IC50)
T3 sequence (P09871 16-688): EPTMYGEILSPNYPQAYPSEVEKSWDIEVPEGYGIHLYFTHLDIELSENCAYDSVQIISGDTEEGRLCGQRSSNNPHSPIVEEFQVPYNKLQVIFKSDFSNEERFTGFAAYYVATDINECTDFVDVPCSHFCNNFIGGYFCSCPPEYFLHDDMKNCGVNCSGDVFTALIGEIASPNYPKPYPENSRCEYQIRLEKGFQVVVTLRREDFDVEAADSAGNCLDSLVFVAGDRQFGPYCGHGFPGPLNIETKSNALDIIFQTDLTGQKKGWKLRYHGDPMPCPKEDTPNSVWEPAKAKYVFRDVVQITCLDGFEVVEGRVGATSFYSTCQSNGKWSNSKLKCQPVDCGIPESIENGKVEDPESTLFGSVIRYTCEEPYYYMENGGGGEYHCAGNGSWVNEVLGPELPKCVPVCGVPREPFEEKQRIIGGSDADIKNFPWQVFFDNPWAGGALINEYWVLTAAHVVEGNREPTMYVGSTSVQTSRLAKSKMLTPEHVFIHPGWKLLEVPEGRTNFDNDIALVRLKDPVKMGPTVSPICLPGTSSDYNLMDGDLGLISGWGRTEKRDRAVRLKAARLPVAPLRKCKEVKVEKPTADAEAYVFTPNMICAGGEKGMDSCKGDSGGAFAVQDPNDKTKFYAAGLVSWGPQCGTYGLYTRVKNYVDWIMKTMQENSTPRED
Description: The anti-C1 esterase (C1r, C1s) activity was determined according to the method of Okamura et al. (Biochem. Biophys. Acta (1973), volume 295, pages 252-257). […] The values for C1s represent molar concentrations (IC50) of test compounds which inhibit 50% of the activity of C1s to hydrolyze ATEE (acetyltyrosine ethyl ester).

kallikrein = assay: anti-kallikrein activity, hydrolysis of TAME (tosylarginine methyl ester); type: biochemical; conditions: hydrolysis of TAME; read-out: Kal: molar concentration inhibiting 50% of enzyme activity (IC50)
Description: as §1

thrombin = thrombin (Homo sapiens, UniProt P00734); assay: anti-thrombin activity, hydrolysis of TAME (tosylarginine methyl ester); type: biochemical; conditions: hydrolysis of TAME; read-out: Thr: molar concentration inhibiting 50% of enzyme activity (IC50)
Description: as §1

Masugi's nephritis = assay: Effectiveness in treating Masugi's nephritis (experimental glomerulonephritis), protein in urine; type: in vivo, rat
Description: […] […] As the index to effectiveness, the protein concentration in urine was determined. That is, when inflammation develops in the kidney, it causes damage to renal tubules, etc., and a resultant increase in protein concentration in urine.

adjuvant arthritis = assay: Effectiveness in treating adjuvant arthritis (Mycobacterium butyricum); type: in vivo, rat; conditions: 30 mg/kg, oral, day -1 to day 13
Description: Adjuvant arthritis is known as a representative model of autoimmune diseases and is a effective means of testing agents to treat human rheumatoid arthritis (Encyclopedia of Immunology, edited by I. M. Roitt, Academic Press, 1992; Otterness, I. G., et al., J. of Rheumatology (1991), volume 18, pages 505-511),
The method of experiment was as follows. A 0.6% Mycobacterium butyricum liquid paraffin suspension, 0.1 ml/animal, was administered to a rat at a subcutaneous site of left hind-limb sole to induce adjuvant arthritis. The present compound was orally administered (in the form of a suspension in water) consecutively from 1 day before the induction to 13 days after the induction. The efficacy of the present compound on adjuvant arthritis was evaluated by examining the swelling accompanied by red spots and subcutaneous knots at the fore-limb, hind-limb, tail, ear and periphery of eye with the lapse of days (on the 8th, 10th, 12th, 14th, 16th and 18th days after adjuvant administration), expressing the results in terms of scores according to the method of F. D. Wood et al. (Int. Arch. Allergy (1969), volume 35, pages 456-467), and calculating the percentage inhibition relative to the control group. Thus, the higher value of percentage inhibition indicates the higher effectiveness.

[1] = hydrolysis of AAME, read-out: Clr: molar concentration inhibiting 50% of C1r activity (IC50)
[2] = 30 mg/kg, oral, mean ± standard deviation, 7 animals, control group 40.8 ± 15.1
[3] = 100 mg/kg, oral, mean ± standard deviation, 7 animals, control group 40.8 ± 15.1

Sequence of plasmin (P00747 581-810 limits assumed, species assumed): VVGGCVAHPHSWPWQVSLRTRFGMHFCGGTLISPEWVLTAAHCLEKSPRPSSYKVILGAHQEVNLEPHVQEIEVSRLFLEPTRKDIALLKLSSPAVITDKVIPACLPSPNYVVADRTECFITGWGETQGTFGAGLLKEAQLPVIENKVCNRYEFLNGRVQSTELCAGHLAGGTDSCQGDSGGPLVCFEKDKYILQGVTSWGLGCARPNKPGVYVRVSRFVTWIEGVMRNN
Sequence of plasmin (P00747 97-580 partner limits assumed, species assumed): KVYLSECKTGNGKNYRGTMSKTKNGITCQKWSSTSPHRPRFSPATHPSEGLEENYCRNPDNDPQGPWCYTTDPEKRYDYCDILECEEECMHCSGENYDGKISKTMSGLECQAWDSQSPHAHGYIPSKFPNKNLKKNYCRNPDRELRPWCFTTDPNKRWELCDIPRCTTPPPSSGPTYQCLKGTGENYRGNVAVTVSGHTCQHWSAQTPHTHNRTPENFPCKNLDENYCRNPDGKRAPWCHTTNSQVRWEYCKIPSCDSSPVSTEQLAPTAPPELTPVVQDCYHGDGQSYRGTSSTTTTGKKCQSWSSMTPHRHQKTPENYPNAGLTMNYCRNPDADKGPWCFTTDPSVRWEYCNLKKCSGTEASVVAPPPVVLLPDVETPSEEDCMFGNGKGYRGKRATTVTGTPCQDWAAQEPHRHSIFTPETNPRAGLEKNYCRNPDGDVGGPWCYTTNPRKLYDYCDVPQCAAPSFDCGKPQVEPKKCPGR

Row | IC50 (C1r; [1]) [nM] | Structure (SMILES) | IC50 (trypsin) [nM] | IC50 (plasmin) [nM] | IC50 (C1s) [nM] | IC50 (kallikrein) [nM] | IC50 (thrombin) [nM] | Protein concentration in urine (Masugi's nephritis; [2]) [mg/mL] | further results
1 |  | Cl.N=C(N)c1ccc2cc(OC(=O)c3ccc(CNC(=O)[C@H]4CC[C@H](C(=O)O)CC4)o3)ccc2c1 [Example 11, 6-Amidino-2-naphthyl 5-(trans-4-carboxy-1-cyclohexanoylaminomethyl)furan-2-carboxylate hydrochloride] | 660 | 400 | 280 | 870 | 1200 |  | IC50 (C1r): 1200 nM; Protein concentration in urine (Masugi's nephritis; po, 30 mg/kg): 33.6 ± 17.8 mg/mL
2 |  | Cl.N=C(N)c1ccc2cc(OC(=O)c3ccc(CNC(=O)/C=C/C(=O)O)o3)ccc2c1 [Example 13, 6-Amidino-2-naphthyl 5-(trans-2-carboxyvinyl)carbonylaminomethylfuran-2-carboxylate hydrochloride] |  |  |  |  |  | 24.2 ± 16.8 | 
3 |  | Cl.N=C(N)c1ccc2cc(OC(=O)c3ccc(CNC(=O)CCCCC(=O)O)o3)ccc2c1 [Example 23, 6-Amidino-2-naphthyl 5-(5-carboxyvalerylaminomethyl)furan-2-carboxylate hydrochloride] |  |  |  |  |  | 24.2 ± 18.8 | 
4 |  | Cl.N=C(N)c1ccc2cc(OC(=O)c3ccc(CNC(=O)CCCCCCCC(=O)O)o3)ccc2c1 [Example 26, 6-Amidino-2-naphthyl 5-(8-carboxyoctanoylaminomethyl)furan-2-carboxylate hydrochloride] |  |  |  |  |  | 25.0 ± 15.4 | 
5 | 440 | N=C(N)NC(CCC(=O)O)C(=O)NCc1ccc(C(=O)Oc2ccc3cc(C(=N)N)ccc3c2)o1 (centres unmarked) [Example 29, 6-Amidino-2-naphthyl 5-(4-carboxy-2-guanidinobutyrylaminomethyl)furan-2-carboxylate dihydrobromide] | 1200 | 230 | 360 | 240 | 1600 |  | 
6 | 290 | CN(C)C(=O)COC(=O)CCC(=O)NCc1ccc(C(=O)Oc2ccc3cc(C(=N)N)ccc3c2)o1 [Example 31, 6-Amidino-2-naphthyl 5-(3-N,N-dimethylcarbamoylmethoxycarbonylpropionylaminomethyl)furan-2-carboxylate hydrochloride] | 600 | 160 | 450 | 170 | 150 |  | Percentage inhibition (arthritis score) (adjuvant arthritis): 67.7%
7 |  | N=C(N)c1ccc2cc(OC(=O)c3ccc(CNC(=O)CCC(N)=O)o3)ccc2c1 [Example 32, 6-Amidino-2-naphthyl 5-(3-carbamoylpropionylaminomethyl)furan-2-carboxylatehydrochloride] |  |  |  |  |  | 22.8 ± 13.9 | 
8 | 140 | Cc1oc(=O)oc1COC(=O)CCC(=O)NCc1ccc(C(=O)Oc2ccc3cc(C(=N)N)ccc3c2)o1 [Example 33, 6-Amidino-2-naphthyl 5-{[3-(4-methyl-1,3-dioxole-2-one-5-yl)methoxycarbonyl]propionylaminomethyl}furan-2-carboxylate hydrochloride] | 6600 | 84 | 220 | 580 | 23 |  | 
9 |  | Cl.N=C(N)c1ccc2cc(OC(=O)c3ccc(CNC(=O)CCC(=O)NCC(=O)O)o3)ccc2c1 [Example 36, 6-Amidino-2-naphthyl 5-(3-carboxymethylcarbamoylpropionylaminomethyl)furan-2-carboxylate hydrochloride] |  |  |  |  |  | 26.2 ± 14.7 | 
10 |  | CCC(C(=O)O)C(=O)NCc1ccc(C(=O)Oc2ccc3cc(C(=N)N)ccc3c2)o1.Cl (centres unmarked) [Example 38, 6-Amidino-2-naphthyl 5-(2-carboxybutyrylaminomethyl)furan-2-carboxylate hydrochloride] |  |  |  |  |  | 17.8 ± 12.4 | 
11 |  | CC(CC(=O)O)CC(=O)NCc1ccc(C(=O)Oc2ccc3cc(C(=N)N)ccc3c2)o1.Cl (centres unmarked) [Example 43, 6-Amidino-2-naphthyl 5-(4-carboxy-3-methylbutyrylaminomethyl)furan-2-carboxylate hydrochloride] |  |  |  |  |  | 21.8 ± 10.3 | 
12 |  | N=C(N)c1ccc2cc(OC(=O)c3ccc(CNC(=O)CC4(CC(=O)O)CCCC4)o3)ccc2c1 [Example 44, hydrochloride] |  |  |  |  |  | 20.0 ± 12.9 | 
13 |  | N=C(N)c1ccc2cc(OC(=O)c3ccc(CNC(=O)c4ccc(NC5=NCCN5)cc4)o3)ccc2c1 [Known compd. I, reference compound] |  |  |  |  |  |  | Protein concentration in urine (Masugi's nephritis; [3]): 24.4 ± 11.9 mg/mL
14 |  | N=C(N)c1ccc2cc(OC(=O)c3ccc(CN)o3)ccc2c1 [Known compd. II, reference compound] |  |  |  |  |  |  | Protein concentration in urine (Masugi's nephritis; [3]): 22.1 ± 11.4 mg/mL

Row | Structure (SMILES) | IC50 (C1r; [1]) [nM] | IC50 (trypsin) [nM] | IC50 (plasmin) [nM] | IC50 (C1s) [nM] | IC50 (kallikrein) [nM] | IC50 (thrombin) [nM] | Protein concentration in urine (Masugi's nephritis; [2]) [mg/mL] | further results
15 | Cl.N=C(N)c1ccc2cc(OC(=O)c3ccc(CNC(=O)Cc4ccc(C(=O)O)cc4)o3)ccc2c1 [Example 6, 6-Amidino-2-naphthyl 5-(4-carboxyphenylacetylaminomethyl)furan-2-carboxylate hydrochloride] | 23 | 390 | 260 | 270 | 830 | 10000 | 19.7 ± 11.1 | 
16 | COC(=O)CCC(=O)NCc1ccc(C(=O)Oc2ccc3cc(C(=N)N)ccc3c2)o1.Cl [Example 34, 6-Amidino-2-naphthyl 5-(3-methoxycarbonylpropionylaminomethyl)furan-2-carboxylate hydrochloride] | 330 | 270 | 130 | 170 | 130 | 89 | 29.3 ± 18.8 | 
